Active and inactive are the calls of the source. No rule for the calls is given here.
Test system: rodent carcinogenicity bioassays, tumor incidence
Assay: CCRIS carcinogenicity studies
Procedure, shortened: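 Archive of carcinogenicity, mutagenicity, tumor promotion and tumor inhibition results drawn from journals, NCI reports and other sources, expert-reviewed; covers 1985-2011 and is no longer updated.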

Structure (SMILES): Cc1c2ccccc2c(C)c2c1ccc1ccccc12
- carcinogen call (Species: MOUSE, Strain/Sex: SWISS/MALE,FEMALE, Route: SUBCUTANEOUS, Dose: 30-40 UG IN 0.02 ML OF 1% AQ GEL, Tumor Site: Type of Lesion: LUNG, LYMPHATIC SYSTEM: MALIGNANT LYMPHOMA): active; positive
- carcinogen call (Species: RAT, Strain/Sex: ALBINO/MALE,FEMALE, Route: SUBCUTANEOUS, Dose: 5 MG IN 0.5 ML OLIVE OIL ONCE, Tumor Site: Type of Lesion: INJECTION SITE: RHABDOMYOSARCOMA): active; positive
- carcinogen call (Species: RAT, Strain/Sex: BIRMINGHAM/ MALE, FEMALE, Route: DERMAL, Dose: 0.5, 1.6% SOLN IN OLIVE OIL ONCE EVERY 2 WK, Tumor Site: Type of Lesion: INTEGUMENTARY SYSTEM (SKIN): SQUAMOUS PAPILLOMA, KERATOACANTHOMA, SQUAMOUS CELL CARCINOMA, MAMMARY GLAND): active; positive
- carcinogen call (Species: RAT, Strain/Sex: F344/FEMALE, 3 WKS OF AGE, Route: GAVAGE, Dose: 50 MG/KG ONCE (STUDY DURATION: 36 WKS), Tumor Site: Type of Lesion: MAMMARY GLAND: CARCINOMA): 20% tumor incidence; 0.23 carcinomas/rat; immature rats less susceptible
- carcinogen call (Species: RAT, Strain/Sex: F344/FEMALE, 8 WKS OF AGE, Route: GAVAGE, Dose: 50 MG/KG ONCE (STUDY DURATION: 36 WKS), Tumor Site: Type of Lesion: MAMMARY GLAND: CARCINOMA): 69% tumor incidence; 1.27 carcinomas/rat; mature rats more susceptible
- carcinogen call (Species: RAT, Strain/Sex: OUTBRED/ MALE, FEMALE, Route: DERMAL, Dose: 0.5, 1.6% SOLN IN OLIVE OIL ONCE EVERY 2 WK, Tumor Site: Type of Lesion: INTEGUMENTARY SYSTEM (SKIN): SQUAMOUS PAPILLOMA, KERATOACANTHOMA, SQUAMOUS CELL CARCINOMA, MAMMARY GLAND): active; positive
- carcinogen call (Species: RAT, Strain/Sex: SPRAGUE-DAWLEY/FEMALE, Route: GAVAGE, Dose: 10 MG IN 0.5 ML SESAME OIL ONCE, Tumor Site: Type of Lesion: MAMMARY GLAND): active; positive
- carcinogen call (Species: RAT, Strain/Sex: SPRAGUE-DAWLEY/FEMALE, Route: GAVAGE, Dose: 20 MG IN 1 ML SESAME OIL ONCE, Tumor Site: Type of Lesion: MAMMARY GLAND: FIBROADENOMA, CARCINOMA): active; positive
- carcinogen call (Species: RAT, Strain/Sex: SPRAGUE-DAWLEY/FEMALE, Route: INJECTION, Dose: 0, 0.25, 1 UMOL PER MAMMARY GLAND (STUDY DURATION: 24 WK), Dose: 0, 0.25, 1 UMOL PER MAMMARY GLAND (STUDY DURATION: 24 WK), Tumor Site: Type of Lesion: MAMMARY GLAND: TUMOR): active; positive
- carcinogen call (Species: RAT, Strain/Sex: SPRAGUE-DAWLEY/FEMALE, Route: INTRAVENOUS, Dose: 5 MG IN 1 ML LIPID EMULSION ONCE, Tumor Site: Type of Lesion: MAMMARY GLAND): active; positive
- carcinogen call (Species: RAT, Strain/Sex: SPRAGUE-DAWLEY/FEMALE, Route: ORAL, Dose: 10 MG IN SESAME OIL 3 TIMES AT 14 D INTERVALS, Tumor Site: Type of Lesion: MAMMARY GLAND: ADENOMA, ADENOCARCINOMA): active; positive
- carcinogen call (Species: RAT, Strain/Sex: SPRAGUE-DAWLEY/FEMALE, Route: ORAL, Dose: 20 MG IN SESAME OIL ONCE, Tumor Site: Type of Lesion: MAMMARY GLAND: ADENOMA, FIBROADENOMA, CARCINOMA, ADENOCARCINOMA): active; positive
- carcinogen call (Species: RAT, Strain/Sex: SPRAGUE-DAWLEY/FEMALE, Route: SUBCUTANEOUS, Dose: 0, 2 UMOL IN 0.25 ML TRIOCTANOIN INTO LEFT HIND LEG AT ABOUT 40 D OF AGE FOLLOWED BY SECOND DOSE 6 D LATER (STUDY DURATI, Tumor Site: Type of Lesion: INJECTION SITE: SARCOMA): active; positive
- carcinogen call (Species: RAT, Strain/Sex: SPRAGUE-DAWLEY/FEMALE, Route: SUBCUTANEOUS, Dose: 0, 2 UMOL IN 0.25 ML TRIOCTANOIN ONCE INTO LEFT HIND LEG AT ABOUT 40 D OF AGE (STUDY DURATION: 16 MO), Tumor Site: Type of Lesion: INJECTION SITE: SARCOMA): active; positive
- carcinogen call (Species: RAT, Strain/Sex: STRAIN-CB/FEMALE, Route: SUBCUTANEOUS, Dose: 0.25 ML OF 1% SOLN IN DMSO ONCE, Tumor Site: Type of Lesion: INJECTION SITE: SPINDLE CELL SARCOMA): active; positive
- carcinogen call (Species: RAT, Strain/Sex: WISTAR/FEMALE, Route: GAVAGE, Dose: 0.4 ML OF 0.5% SUNFLOWER SEED OIL SOLN 2/WK FOR 4.5 MO (TOTAL DOSE: 68 MG), Tumor Site: Type of Lesion: HEMATOPOIETIC SYSTEM (LEUKEMIA)): active; positive
- carcinogen call (Species: RAT, Strain/Sex: WISTAR/FEMALE, Route: INJECTION, Dose: 0, 0.05 ML OF A 1% SOLUTION IN ACETONE INJECTED INTO SUBMANDIBULAR SALIVARY GLANDS AFTER EXCISION OF A SMALL PORTION OF, Tumor Site: Type of Lesion: SALIVARY GLAND: ADENOCARCINOMA): active; positive
- carcinogen call (Species: RAT, Strain/Sex: WISTAR/FEMALE, Route: INTRADUCTAL, Dose: 0, 1 MG IN 0.05 ML OF SESAME OIL INJECTED INTO MAIN MAMMARY DUCT ON THE 10TH PUERPERAL DAY (STUDY DURATION: 20 WK), Tumor Site: Type of Lesion: MAMMARY GLAND: DUCTAL CARCINOMA): active; positive
- carcinogen call (Species: RAT, Strain/Sex: WISTAR/FEMALE, Route: ORAL, Dose: 10 MG IN SESAME OIL 3 TIMES AT 14 D INTERVALS, Tumor Site: Type of Lesion: MAMMARY GLAND: ADENOMA, ADENOCARCINOMA): active; positive
- carcinogen call (Species: RAT, Strain/Sex: WISTAR/FURTH/FEMALE, Route: OVARIAN IMPLANTATION OF CARCINOGEN-COATED SUTURE AT 7 WKS OF AGE, Dose: 200 UG IN SUTURE ONCE (STUDY DURATION: 1 YR), Tumor Site: Type of Lesion: OVARY: ADENOCARCINOMA, 77%): active; positive
- carcinogen call (Species: RAT, Strain/Sex: WISTAR/MALE, Route: INJECTION, Dose: 0, 0.05 ML OF A 1% SOLUTION IN ACETONE INJECTED INTO SUBMANDIBULAR SALIVARY GLANDS AFTER EXCISION OF A SMALL PORTION OF, Tumor Site: Type of Lesion: SALIVARY GLAND: FIBROSARCOMA): active; positive
- carcinogen call (Species: RAT, Strain/Sex: ZUCKER/FEMALE, LEAN, Route: ORAL (GAVAGE), Dose: 65 MG/KG ONCE AT 50 D OF AGE (STUDY DURATION: 139 D), Tumor Site: Type of Lesion: MAMMARY: TUMOR 32%, LATENCY 86 D): active; positive; lean rats had longer latent period and lower tumor incidence than obes
- carcinogen call (Species: RAT, Strain/Sex: ZUCKER/FEMALE, OBESE, Route: ORAL (GAVAGE), Dose: 65 MG/KG ONCE AT 50 D OF AGE (STUDY DURATION: 139 D), Tumor Site: Type of Lesion: MAMMARY: TUMOR 68%, LATENCY 49 D): active; positive; obese rats had higher tumor incidence and shorter latent period than l
- carcinogen call (Species: Rat, Strain/Sex: Fischer 344/Female, Route: Direct application to ovary, Dose: 100 ug in sesame oil, once, study duration 5 months): inactive; negative
- carcinogen call (Species: SHREW, Strain/Sex: JAPANESE/FEMALE, Route: INTRAPERITONEAL, Dose: 0, 1.25, 2.5 MG 1/WK FOR 4 WK (STUDY DURATION: 50 WK), Dose: 0, 1.25, 2.5 MG 1/WK FOR 4 WK (STUDY DURATION: 50 WK), Tumor Site: Type of Lesion: HEMATOPOIETIC SYSTEM: LEUKEMIA): active; positive
- carcinogen call (Species: SHREW, Strain/Sex: JAPANESE/FEMALE, Route: INTRAPERITONEAL, Dose: 0, 1.25, 2.5 MG 1/WK FOR 8 WK (STUDY DURATION: 50 WK), Dose: 0, 1.25, 2.5 MG 1/WK FOR 8 WK (STUDY DURATION: 50 WK), Tumor Site: Type of Lesion: HEMATOPOIETIC SYSTEM: LEUKEMIA): active; positive
- carcinogen call (Species: SHREW, Strain/Sex: JAPANESE/FEMALE, Route: SUBCUTANEOUS, Dose: 0, 1 MG INTO RIGHT INGUINAL SUBCUTANEOUS TISSUE OVER THE MAMMARY GLAND ONCE (STUDY DURATION: 50 WK), Tumor Site: Type of Lesion: INJECTION SITE: SARCOMA): active; positive
